Source: ChEMBL document CHEMBL1201862, “PubChem BioAssay data set” (2004)
Active and inactive are the calls of the source.

Experiments:
[1] = HeLa cell cytotoxicity, dose response, cytotoxicity control for MgcRacGAP inhibitor project (AID 624300); assay type: functional
[2] = target: Intestinal-type alkaline phosphatase (Homo sapiens, UniProt P09923); assay: Dose Response confirmation of uHTS hits from a small molecule inhibitors of human intestinal alkaline phosphatase via a luminescent assay. [Related pubchem assays (depositor defined):AID2544, AID2574]; assay type: functional
Intestinal-type alkaline phosphatase, sequence (P09923 whole entry, the tested form may be a part): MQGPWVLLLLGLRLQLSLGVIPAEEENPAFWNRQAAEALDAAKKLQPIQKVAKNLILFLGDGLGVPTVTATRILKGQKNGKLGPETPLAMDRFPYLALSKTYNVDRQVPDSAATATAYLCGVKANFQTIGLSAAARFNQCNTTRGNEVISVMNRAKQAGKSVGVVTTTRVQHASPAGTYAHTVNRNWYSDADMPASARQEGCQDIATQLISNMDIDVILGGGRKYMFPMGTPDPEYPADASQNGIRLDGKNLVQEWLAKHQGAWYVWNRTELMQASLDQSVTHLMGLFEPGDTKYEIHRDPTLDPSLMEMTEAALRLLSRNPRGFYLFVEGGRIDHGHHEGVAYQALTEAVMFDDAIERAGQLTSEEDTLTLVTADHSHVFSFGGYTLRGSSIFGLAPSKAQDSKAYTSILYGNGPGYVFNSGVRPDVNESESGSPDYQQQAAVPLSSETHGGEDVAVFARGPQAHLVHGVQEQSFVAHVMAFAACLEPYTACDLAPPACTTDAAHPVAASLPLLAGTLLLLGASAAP

[3] = inhibitors of HIV Env-driven cell fusion, dose response, cherry-pick (AID 652057); assay type: functional, cell-based
[4] = Luminescence Cell-Based Dose Response HTS to Identify Inhibitors of 5'UTR Stem-Loop Driven Prion Protein mRNA Translation in H4 Neuroglioblastoma Cells. [Related pubchem assays: 1827 (Project Summary), 1813 (Primary HTS)]; assay type: functional
[5] = inhibitors of clade B AD8 Env fusion, dose response, cell-based, cherry-pick (AID 652062); assay type: functional;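 note: luciferase signal from cell-cell fusion driven by HIV-1 clade B AD8 Env; potency is for inhibitors of fusion seen as a drop in luminescence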
[6] = off-target signal loss in HeLa-CEM21 co-culture – HeLa F-luc CTL cells, cherry-picked, counter-screen for HIV-1 Env fusion inhibitor project, dose response (AID 652040); assay type: functional, cell-based;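 note: potency for signal decrease marking cytotoxic or nonspecific inhibition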
[7] = cytotoxicity in HEK-293T cells, dose response, cytotoxicity control for BCR NF-kB inhibitor project, luminescence, B-cell screen hits (AID 489021); assay type: functional, cell-based;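 note: HEK-293T cells carrying an NF-kB luciferase reporter; cells exposed to compound for about 14 hours before viability readout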
[8] = inhibitors of SNCA 5'UTR-driven reporter translation, confirmation, H4 neuroglioma cells, luminescence (AID 1988); assay type: functional, cell-based
[9] = target: Glucose-6-phosphate 1-dehydrogenase (Homo sapiens, UniProt P11413); assay: human G6PD enzyme inhibitors, dose response, selectivity assay for P. falciparum G6PD inhibitor project, biochemical, fluorescence (AID 504792); assay type: functional
Glucose-6-phosphate 1-dehydrogenase, sequence (P11413 whole entry, the tested form may be a part): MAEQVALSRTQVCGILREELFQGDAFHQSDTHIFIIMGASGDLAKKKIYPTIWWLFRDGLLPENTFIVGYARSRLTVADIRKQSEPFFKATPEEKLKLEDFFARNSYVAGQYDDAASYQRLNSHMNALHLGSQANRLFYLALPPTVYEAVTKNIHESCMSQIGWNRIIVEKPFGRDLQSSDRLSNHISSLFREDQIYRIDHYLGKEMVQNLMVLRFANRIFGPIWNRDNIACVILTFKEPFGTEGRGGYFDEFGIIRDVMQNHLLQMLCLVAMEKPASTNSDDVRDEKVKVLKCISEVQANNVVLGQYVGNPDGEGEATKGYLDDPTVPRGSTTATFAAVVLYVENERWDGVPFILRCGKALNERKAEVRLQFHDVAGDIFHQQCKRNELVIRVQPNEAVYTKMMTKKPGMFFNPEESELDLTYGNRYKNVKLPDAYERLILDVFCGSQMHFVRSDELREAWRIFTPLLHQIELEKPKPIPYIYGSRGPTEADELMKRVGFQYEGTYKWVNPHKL

[10] = ZM109 Env clade C HIV-1 fusion inhibitors, dose response, HeLa effector, CEM target cells, luciferase, cherry-pick (AID 652058); assay type: functional, cell-based
[11] = target: Melanin-concentrating hormone receptor 1 (Homo sapiens, UniProt Q99705); assay: Late-stage fluorescence-based counterscreen for antagonists of the G-protein coupled receptor 7 (GPR7): cell-based dose response assay to identify antagonists of the melanin-concentrating hormone receptor 1 (MCHR1). [Related pubchem assays (depositor defined):AID1861, AID1880, AID1952, AID2148, AID2251, AID2257, AID485339]; assay type: functional;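 note: stimulated with 30 nM MCH peptide agonist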
Melanin-concentrating hormone receptor 1, sequence (Q99705 whole entry): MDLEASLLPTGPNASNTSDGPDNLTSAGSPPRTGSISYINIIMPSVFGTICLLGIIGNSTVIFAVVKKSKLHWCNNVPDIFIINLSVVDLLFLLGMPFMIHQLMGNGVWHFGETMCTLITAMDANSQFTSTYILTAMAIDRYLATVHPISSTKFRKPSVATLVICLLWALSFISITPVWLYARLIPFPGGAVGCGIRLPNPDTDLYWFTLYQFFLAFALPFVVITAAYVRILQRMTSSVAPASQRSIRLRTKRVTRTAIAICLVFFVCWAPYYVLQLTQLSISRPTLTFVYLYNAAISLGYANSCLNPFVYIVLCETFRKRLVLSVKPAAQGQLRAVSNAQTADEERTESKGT

Nonstructural protein 1 = Nonstructural protein 1 (Influenza A virus, UniProt Q194T2); assay type: functional, Influenza A virus (A/California/07/2009(H1N1))
Nonstructural protein 1, sequence (Q194T2 whole entry): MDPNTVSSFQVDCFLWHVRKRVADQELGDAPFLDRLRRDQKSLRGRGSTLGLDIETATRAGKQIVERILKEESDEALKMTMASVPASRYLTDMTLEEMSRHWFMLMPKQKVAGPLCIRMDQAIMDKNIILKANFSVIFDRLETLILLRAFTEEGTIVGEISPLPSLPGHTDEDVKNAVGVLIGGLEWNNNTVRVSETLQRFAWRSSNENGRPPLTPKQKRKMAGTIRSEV

[12] = target: C-C chemokine receptor type 6 (Homo sapiens, UniProt P51684); assay: CCR6 receptor antagonists, dose response, cell-based, luminescent beta-arrestin readout (AID 504728); assay type: functional
C-C chemokine receptor type 6, sequence (P51684 whole entry): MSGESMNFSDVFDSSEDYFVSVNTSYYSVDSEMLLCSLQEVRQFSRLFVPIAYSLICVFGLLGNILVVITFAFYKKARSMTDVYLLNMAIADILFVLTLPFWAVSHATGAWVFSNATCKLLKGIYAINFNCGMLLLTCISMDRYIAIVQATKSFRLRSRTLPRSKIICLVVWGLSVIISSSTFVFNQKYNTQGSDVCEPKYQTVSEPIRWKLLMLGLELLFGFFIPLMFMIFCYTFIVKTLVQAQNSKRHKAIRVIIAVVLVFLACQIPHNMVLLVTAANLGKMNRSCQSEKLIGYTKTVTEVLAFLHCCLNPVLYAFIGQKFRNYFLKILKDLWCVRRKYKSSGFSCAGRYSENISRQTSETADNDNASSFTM

Beta-galactosidase = Beta-galactosidase (Escherichia coli, UniProt Q8VNN2); assay: beta-galactosidase enzyme inhibitors and activators, dose response, artefact control for CCR6 antagonist project, biochemical, E. coli enzyme, set 3 (AID 504712); assay type: functional
Beta-galactosidase, sequence (Q8VNN2 whole entry): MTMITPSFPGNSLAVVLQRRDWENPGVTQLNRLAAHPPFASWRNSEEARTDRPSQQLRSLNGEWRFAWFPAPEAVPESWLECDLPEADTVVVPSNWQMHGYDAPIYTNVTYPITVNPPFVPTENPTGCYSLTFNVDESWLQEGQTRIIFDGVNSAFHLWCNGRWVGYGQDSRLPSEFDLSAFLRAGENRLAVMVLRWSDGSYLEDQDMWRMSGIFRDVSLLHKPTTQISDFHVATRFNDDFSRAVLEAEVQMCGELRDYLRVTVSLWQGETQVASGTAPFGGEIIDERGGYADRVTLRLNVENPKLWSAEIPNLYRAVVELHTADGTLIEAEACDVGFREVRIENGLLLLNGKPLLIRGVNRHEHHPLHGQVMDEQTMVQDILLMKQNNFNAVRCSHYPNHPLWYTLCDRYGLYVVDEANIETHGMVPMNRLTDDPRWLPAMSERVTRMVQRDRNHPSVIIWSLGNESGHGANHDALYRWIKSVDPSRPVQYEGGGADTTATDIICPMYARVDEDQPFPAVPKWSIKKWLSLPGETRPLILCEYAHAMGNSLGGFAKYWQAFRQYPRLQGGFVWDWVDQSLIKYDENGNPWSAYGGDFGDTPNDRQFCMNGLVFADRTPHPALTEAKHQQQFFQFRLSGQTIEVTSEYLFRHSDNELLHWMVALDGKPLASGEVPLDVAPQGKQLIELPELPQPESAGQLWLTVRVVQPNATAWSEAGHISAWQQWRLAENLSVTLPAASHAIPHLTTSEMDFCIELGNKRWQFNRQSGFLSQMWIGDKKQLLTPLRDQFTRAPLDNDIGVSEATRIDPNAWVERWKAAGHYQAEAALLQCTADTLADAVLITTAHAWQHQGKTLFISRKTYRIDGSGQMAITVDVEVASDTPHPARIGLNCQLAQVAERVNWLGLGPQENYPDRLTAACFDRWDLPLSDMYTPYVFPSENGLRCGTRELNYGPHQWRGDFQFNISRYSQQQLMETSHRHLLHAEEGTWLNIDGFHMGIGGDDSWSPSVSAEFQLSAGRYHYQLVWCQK

Vero = assay: cells; assay type: functional; conditions: Chlorocebus sabaeus
[13] = target: T1, Tyrosine-protein phosphatase non-receptor type 7 (Homo sapiens, UniProt P35236); assay: redox-dependent HePTP inhibition, mechanism study, biochemical, fluorescence (AID 2068); assay type: functional
T1 sequence (P35236 whole entry): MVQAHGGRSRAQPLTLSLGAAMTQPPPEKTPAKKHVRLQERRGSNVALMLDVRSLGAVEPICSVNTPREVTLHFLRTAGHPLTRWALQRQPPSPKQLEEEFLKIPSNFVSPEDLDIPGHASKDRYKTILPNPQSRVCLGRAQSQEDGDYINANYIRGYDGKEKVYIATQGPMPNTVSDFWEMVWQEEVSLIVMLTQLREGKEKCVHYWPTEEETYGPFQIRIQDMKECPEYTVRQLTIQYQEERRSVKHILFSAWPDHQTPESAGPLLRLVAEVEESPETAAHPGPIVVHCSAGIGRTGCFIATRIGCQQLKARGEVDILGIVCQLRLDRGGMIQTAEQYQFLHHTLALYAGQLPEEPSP

Perilipin-1/ABHD5 = Perilipin-1/ABHD5 (Homo sapiens, UniProt O60240+Q8WTS1); assay: Luminescence-based biochemical high throughput dose response assay for inhibitors of the interaction of the lipase co-activator protein, abhydrolase domain containing 5 (ABHD5) with perilipin-1 (PLIN1) (2K validation set). [Related pubchem assays (depositor defined):AID493027, AID493057]
Perilipin-1/ABHD5, sequence (Q8WTS1 whole entry, the tested form may be a part): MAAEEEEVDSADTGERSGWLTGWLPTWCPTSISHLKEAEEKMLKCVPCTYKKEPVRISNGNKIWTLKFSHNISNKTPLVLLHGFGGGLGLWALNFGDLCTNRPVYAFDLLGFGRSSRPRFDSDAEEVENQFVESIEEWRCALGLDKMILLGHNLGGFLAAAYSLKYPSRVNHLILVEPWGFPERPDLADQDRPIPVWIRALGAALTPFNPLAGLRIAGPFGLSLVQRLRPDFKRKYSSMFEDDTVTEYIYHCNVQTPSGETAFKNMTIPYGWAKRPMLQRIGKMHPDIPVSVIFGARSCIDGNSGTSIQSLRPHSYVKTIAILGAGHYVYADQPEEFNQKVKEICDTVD
Perilipin-1/ABHD5, sequence (O60240 whole entry, the tested form may be a part): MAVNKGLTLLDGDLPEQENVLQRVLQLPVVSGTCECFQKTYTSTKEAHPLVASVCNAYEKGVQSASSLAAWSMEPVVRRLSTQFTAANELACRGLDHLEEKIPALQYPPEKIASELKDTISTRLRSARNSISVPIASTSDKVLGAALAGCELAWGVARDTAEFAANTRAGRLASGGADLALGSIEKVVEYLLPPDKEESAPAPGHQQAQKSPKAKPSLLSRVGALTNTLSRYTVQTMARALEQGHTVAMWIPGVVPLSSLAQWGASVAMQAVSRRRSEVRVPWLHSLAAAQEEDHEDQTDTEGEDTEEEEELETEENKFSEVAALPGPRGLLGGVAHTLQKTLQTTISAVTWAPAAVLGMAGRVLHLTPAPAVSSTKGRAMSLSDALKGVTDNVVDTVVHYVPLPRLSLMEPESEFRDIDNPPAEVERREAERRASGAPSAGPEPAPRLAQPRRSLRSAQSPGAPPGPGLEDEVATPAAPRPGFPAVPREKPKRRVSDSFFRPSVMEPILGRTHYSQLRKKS

[14] = target: 1-acylglycerol-3-phosphate O-acyltransferase ABHD5/Perilipin-5 (Homo sapiens, UniProt Q00G26+Q8WTS1); assay: Luminescence-based biochemical high throughput dose response assay for inhibitors of the interaction of the lipase co-activator protein, abhydrolase domain containing 5 (ABHD5) with perilipin-5 (MLDP; PLIN5) (2K validation set). [Related pubchem assays (depositor defined):AID493035, AID493241]
1-acylglycerol-3-phosphate O-acyltransferase ABHD5/Perilipin-5, sequence (Q00G26 whole entry, the tested form may be a part): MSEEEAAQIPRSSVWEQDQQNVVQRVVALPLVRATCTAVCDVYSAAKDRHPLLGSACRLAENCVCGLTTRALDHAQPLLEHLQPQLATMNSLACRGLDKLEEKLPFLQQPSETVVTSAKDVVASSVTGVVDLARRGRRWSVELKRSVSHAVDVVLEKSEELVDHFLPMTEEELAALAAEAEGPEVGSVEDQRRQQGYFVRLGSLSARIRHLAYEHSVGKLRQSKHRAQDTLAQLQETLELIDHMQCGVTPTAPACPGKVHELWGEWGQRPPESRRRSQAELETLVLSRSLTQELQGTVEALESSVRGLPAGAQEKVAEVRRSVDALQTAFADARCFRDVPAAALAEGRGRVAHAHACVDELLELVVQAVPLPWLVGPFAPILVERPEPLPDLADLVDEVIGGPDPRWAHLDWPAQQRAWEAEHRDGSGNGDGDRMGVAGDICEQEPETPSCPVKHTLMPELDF
1-acylglycerol-3-phosphate O-acyltransferase ABHD5/Perilipin-5, sequence (Q8WTS1 whole entry, the tested form may be a part): as the sequence (Q8WTS1 whole entry, the tested form may be a part) above

## CC(=O)Nc1cccc(-c2csc(Nc3ccccn3)n2)c1
[1]
  CC50: 94.2 µM (active)
[2]
  IC50: > 100 µM (inactive)

## OCCN1CCN(C(=S)c2ccc(-c3ccccc3)cc2)CC1
[3]
  AC50: 4.04 µM (active)
[4]
  EC50: 12.1 µM (active)
[5]
  AC50: 1.64 µM (active)
[6]
  AC50: 5.39 µM (active)
[7]
  IC50: > 80 µM (inactive)
[8]
  EC50: 9.34 µM (active)
[9]
  IC50: > 80 µM (inactive)
[10]
  AC50: 3.74 µM (active)

## CCOc1ccc(Oc2c(Cl)cnn(-c3ccc(C)cc3)c2=O)cc1
[11]
  IC50: 11 µM (inactive)

## COC(=O)c1ccccc1/N=C1\C=C(NS(=O)(=O)c2cccs2)c2ccccc2C1=O
Nonstructural protein 1
  IC50: 4.03 µM (active)
[12]
  IC50: > 66.6 µM (inactive)
Beta-galactosidase
  IC50: > 66.6 µM (inactive)
Vero
  CC50: 13.6 µM (active)
[9]
  IC50: > 80 µM (inactive)

## O=C(NCc1ccccc1)Nc1ccc2nc(-c3ccco3)c(-c3ccco3)nc2c1
[13]
  IC50: 1.54 µM (active)

## O=C(/C=C/c1ccccc1)c1ccccc1 [CHALCONE]
Perilipin-1/ABHD5
  IC50: 4.19 µM (active)
[14]
  IC50: 4.25 µM (active)
